Experimental data taken from patent US20160192643A1, “NEW ANTIFUNGAL COMPOSITION FOR TREATMENT OF SOIL” (CERADIS B.V., priority 2013, published 2016).

Experiments:
Pythium aphanidermatum = assay: Polyelectrolyte formulation against Pythium aphanidermatum in Chrysanthemum soil
Procedure: Soil was artificially infected with Pythium aphanidermatum spores using well known methods. Crates of 40×60 cm each were filled with infected soil. Transplants of Chrysanthemum were planted after the artificial infection. Each plot consisted of 2 crates with each 15 plants (30 plants per plot). The trial was conducted in four replicates. A single application was done just after transplant by spraying the AllyloCal polyelectrolyte complex over the crop at 1000 l/ha. Immediately after the treatment, the products were rinsed in the soil with 3 liter of water per m^2. The applied concentration in the spray suspension was 1000 ppm of natamycin. After 10 days the numbers of healthy, diseased and dead plants were counted.
At the end of the trial, after 44 days, the average plant height, the average plant weight and the rooting (in percentage of the bottom of the crates covered with roots) were measured.

[1] = neutral aqueous systems; cited from earlier work
Agaricus bisporus = assay: Polyelectrolyte formulation applied on mushroom growth substrate: total yield of mushrooms; type: in vivo; settings: natamycin 500 ppm where present
Procedure: Naturally contaminated Phase III compost inoculated with mushroom spawn of the edible mushroom species Agaricus bisporus prepared using well known methods was obtained from a local Dutch grower
Formulations described in Table 3 were generated as described in Example 1 for CitoCal.
Boxes with a size of 30 (1)×25 (b)×10 (h) cm were filled with the Phase III compost and incubated for 4 days at a temperature of 21° C. in the dark. After this incubation period, the white mushroom mycelium was visible on the surface of the compost. The compost was covered with 3 cm of casing prepared using well known methods after which 30 ml of the different formulations was sprayed onto the casing. Each formulation was examined in duplicate. The next day, 200 ml of water was added to each box after which the boxes were incubated for 7 days at 21° C. in the dark allowing the mycelium to grow to the surface of the casing. After this period the white mushroom mycelium was visible at the surface of the casing. The boxes were further incubated in the dark at a temperature of 18° C.
Dehydration of the casing surface was prevented by spraying sufficient and equal amounts of water (circa 10 ml) onto the casing in each box every few days using well known methods. […] During a period of 46 days mushrooms were harvested every day; the total yield was determined by measuring the weight of the mushrooms.

most fungi = settings: cited from earlier work
[2] = 10 days after infection, n = 120, single spray at 1000 l/ha, 1000 ppm natamycin
[3] = compared with the untreated plants (n = 120), after 44 days
[4] = end of the trial, after 44 days

C[C@@H]1C/C=C/C=C/C=C/C=C/[C@H](O[C@@H]2O[C@H](C)[C@@H](O)[C@H](N)[C@@H]2O)C[C@@H]2O[C@](O)(C[C@@H](O)C[C@H]3O[C@@H]3/C=C/C(=O)O1)C[C@H](O)[C@H]2C(=O)O [Natamycin, natamycin]
Dead plants (%) (Pythium aphanidermatum; [2]): 6%
Diseased plants (%) (Pythium aphanidermatum; [2]): 34%
Healthy plants (%) (Pythium aphanidermatum; [2]): 60%
Percentage improvement of plant height (%) (Pythium aphanidermatum; [3]): 5.5%
Percentage improvement of plant rooting (%) (Pythium aphanidermatum; [3]): 2.3%
Percentage improvement of plant weight (%) (Pythium aphanidermatum; [3]): 3.9%
average plant height (Pythium aphanidermatum; [4]): 59.9 cm
average plant weight (Pythium aphanidermatum; [4]): 43.1 grams
solubility [1]: 30-40 ppm
Total yield (gram/2 boxes) (Agaricus bisporus; total mushroom weight after 46 days of incubation, 30 ml formulation sprayed onto casing, naturally contaminated Phase III compost): 359 gram/2 boxes
Yield increase (%) (Agaricus bisporus; versus Control, 46 days of incubation): −1.4%
Minimal Inhibitory Concentration (MIC) (most fungi): less than 10 ppm
